Series [1] can be described thus: Activity of compounds of Formula 1 (test not specified). The note with it: test not stated.
A short description of series [2]: Oral bioavailability in rat. The format is in vivo. The following applies: plasma, 12.5 umol/kg, orally 12.5 μmol/kg vs intravenously 5 μmol/kg, ratio of AUC. The method, then: Experiments are performed 24 hours after implantation of arterial and venous catheters. Test compound is administered orally at 12.5 μmol/kg or intravenously at 5 μmol/kg using the venous catheters, n=3 per group. Arterial blood samples are then taken during six hours at 0, 3, 9, 27, 60, 120, 180, 240, 300 and, 360 minutes after administration of the test compound. The oral bioavailability was calculated as the ratio of the AUC (Area under curve) obtained after oral administration over the AUC obtained after intravenous administration for each rat. The parameter AUC was calculated according to the following: […]
AUC: the area under the plasma concentration versus time curve from time zero to the last concentration measured (Clast), calculated by the log/linear trapezoidal method.
The levels of test compound are measured by means of liquid chromatography-mass spectrometry (LC-MS) (Hewlett-Packard 1100MSD Series). The LC-MS module includes a quaternary pump system, vacuum degasser, thermostatted autosampler, thermostatted column compartment, diode array detector and API-ES spray chamber. Data handling was performed with a HP ChemStation rev.A.06.03. system. Instrument settings:MSD mode: Selected ion monitoring (SIM) MSD polarity: Positiv Gas temp: 350° C. Drying gas: 13.0 l/min Nebulizer gas: 50 psig Capillary voltage: 5000 V Fragment or voltage: 70 V
Analytical column: Zorbax eclipse XDB-C8 (4.6*150 mm, 5 μm) at 20° C. The mobile phase was acetic acid (0.03%) (solvent A) and acetonitrile (solvent B). The flow rate of the mobile phase was 0.8 ml/min. The elution was starting at 12% of solvent B isocratic for 4.5 min, then increasing linearity to 60% over 4.5 min.
Extractions procedure: Plasma samples (0.25-0.5 ml) were diluted with water to 1 ml, and 60 pmol (100 μl) internal standard (−)-OSU6241 was added. The pH was adjusted to 11 by the addition of 25 μl saturated Na2CO3. […] The selective ion (MH^+) was monitored for each Example, and MH^+ 296 for (−)-OSU6241 ((3-[3-(ethylsulfonyl)phenyl]-1-propylpiperidine). […]

A short description of series [3]: Metabolic stability in rat liver microsomes. The series is classed as in vitro ADME. The note with it: 15 minutes incubation at 37° C., NADPH. The method, then: Rat liver microsomes were isolated as described by Forlin (1980) Tox Appl Pharm. 54(3) 420-430, with minor modifications e.g. 3 mL/g liver of a 0.1 M Na/K*PO4 buffer with 0.15M KCl, pH 7.4, (buffer 1) was added before homogenisation, the homogenate was centrifuged for 20 minutes instead of 15, the supernatant was ultracentrifuged at 100.000 g instead of 105.000 g and the pellet from the ultracentrifugation was resuspended in 1 mL/g liver of 20% v/v 87% glycerol in buffer 1.
1 μL of, 0.2 or 1 mM test substance diluted in water, and 10 μL 20 mg/mL rat liver microsome were mixed with 149 μL, 37° C. buffer 1 and the reaction was started by addition of 40 μL 4.1 mg/mL NADPH. After 0 or 15 minutes incubation at 37° C. in a heating block (LAB-LINE, MULTI-BLOK Heater or lab4you, TS-100 Thermo shaker at 700 rpm) the reaction was stopped by addition of 100 μL pure acetonitrile. […] The test compound was analysed using HPLC-MS (Hewlett-Packard 1100MSD Series) with a Zorbax SB-C18 column (2.1*150 mm, 5 μm) using 0.03% formic acid and acetonitrile as mobile phase (gradient) or a Zorbax Eclipse XDB-C18 (3*75 mm, 3.5 μm) using 0.03% acetic acid and acetonitrile as mobile phase (gradient). The 15 mM turnover was calculated as the fraction of test compound eliminated after 15 minutes, expressed in percent of 0 mM levels, i.e. 100*[conc test compound at 0 mM—concentration at 15 min]/cone at 0 mM. […]
A general note: Liver microsomes are a subcellular fraction often used to study metabolism.

Series [4] has as its system levels of dopamine and norepinephrine in the cortex. The experiment in a line: Microdialysis in awake and freely moving rats, cortex. The series is classed as in vivo, rat. On the procedure: Remeron is injected (s.c.) at time-point 0. The values depicted in the graph represent percent of control in relation to baseline values. The microdialysis was performed in awake and freely moving rats. Error-bars=SEM
Example 2 is injected (s.c.) at time-point 0. The values depicted in the graph represent percent of control in relation to baseline values. The microdialysis was performed in awake and freely moving rats. Error-bars=SEM
Male Sprague-Dawley rats weighing 220-320 g were used throughout the experiments. Before the experiment the animals were group housed, five animals in each cage, with free access to water and food. The animals were housed at least one week after arrival prior to surgery and use in the experiments. Each rat was used only once for microdialysis.
We use a modified version (Waters, Lofberg et al. 1994) of the I-shaped probe (Santiago and Westerink 1990). […] Co-ordinates were calculated relative to bregma; dorsal striatum AP +1, ML ±2.6, DV −6.3; Pf cortex, AP +3.2, 8° ML ±1.2, DV −4.0 according to (Paxinos and Watson 1986). […]
30 μl of each sample was injected into the chromatograph. […] The currents generated by the two EC detectors are converted to digital data and evaluated using Chromelion software (Dionex, Sunnyvale, Calif.) on a PC. The method sample turn over time was 4.5 min and two parallel experiments are normally analysed simultaneously on the system. […]

The subject of series [5] is MK-801 pre-treated rats. As to the kind of experiment: Locomotor activity in MK-801 pre-treated rats. The note with it: MK-801 0.7 mg/kg i.p. alone, recorded between 30 and 60 minutes, ± SEM.

Consider `CCCN1CCC(c2cccc(S(C)(=O)=O)c2C(F)(F)F)CC1` [4-[3-(methylsulfonyl)-2-(trifluoromethyl)phenyl]-1-propylpiperidine], for which, in series [1], the result was inactive.
Take `CCCN1CCC(c2cccc(S(C)(=O)=O)c2F)CC1` [Example 1, 4-[2-FLUORO-3-(METHYLSULFONYL)PHENYL]-1-PROPYLPIPERIDINE]: the bioavailability in series [2] was roughly 100%.
Regarding `CCN1CCC(c2cccc(S(C)(=O)=O)c2F)CC1` [Example 2, 1-ETHYL-4-[2-FLUORO-3-(METHYLSULFONYL)PHENYL]-PIPERIDINE], the “turnover at 15 minutes” value in series [3] is 1%. For the same compound, the bioavailability in series [2] was found to be 87%. In addition, the “levels of dopamine and norepinephrine in the cortex” value in series [4] (50 μmol/kg s.c., pf. cortex, FIG. 2) was “elevate the levels of dopamine and norepinephrine in the cortex”.
As for `CCCN1CCC(c2cccc(C(F)(F)F)c2C#N)CC1` [Example 7, 2-(1-PROPYLPIPERIDIN-4-YL)-6-(TRIFLUOROMETHYL)BENZONITRILE], in series [2], the bioavailability stood at 29%.
Consider `C[C@]12N[C@H](Cc3ccccc31)c1ccccc12` [MK-801], for which, in series [5], the “Locomotor activity, MK-801” value is recorded as 51333 ± 2148 counts/30 min.
`CN1CCN2c3ncccc3Cc3ccccc3C2C1` (centres unmarked) [mirtazapine, reference compound]: the “extracellular norepinephrine and dopamine in the cortex” value in series [4] (10 mg/kg s.c., cortex, FIG. 1) was “increase predominantly extracellullar norepinephrine and dopamine in the cortex”.

Broadly, the bioavailability is dose-corrected exposure relative to a reference, in per cent.

(Values after patent US8314126B2, “Disubstituted phenylpiperdines/piperazines as modulators of dopamine neurotransmission” (NSAB, Filial af Neurosearch Sweden AB, Sverige, priority 2004, dated 2012).)
